According to patent US5466716A, “Liposomal trimethylsphingosine” (The Biomembrane Institute, priority 1994, dated 1995):
“Also recorded” adds a separate entry of the source.

Experiments:
[1] = system: BL6 melanoma cells; assay: melanoma BL6 cell proliferation (thymidine incorporation); format: cell-based; settings: BL6, FIG. 5A
From the text: (§1) FIGS. 5A and 5B depict the effect of N,N,N-trimethylsphingosine (open circles), N,N-dimethylsphingosine (solid circles) and sphingosine (open squares) on two melanoma cell lines, BL6, a highly malignant cell line (in FIG. 5A) and F1, a cell line of low malignancy, (in FIG. 5B). Cell proliferation was evidenced by tritiated thymidine incorporation into DNA.
(§2) An in vitro assay relying on tritiated thymidine incorporation can be used to ascertain the effect of various compounds on cell proliferation. Briefly, tumor cells are seeded in flat bottom 96 well plates (Corning, N.Y.) at a concentration of 2×10^4 cells per well. The cells are cultured for 2 days in DMEM containing various concentrations of sphingoid, which is added as a PBS solution. The medium then is supplemented with tritiated thymidine at a concentration of 0.5 μCi per well. Following a six hour incubation the cells are collected using the PHD Cell Harvester (Cambridge Technology, Cambridge, Mass.) and amounts of incorporated radioactivity are determined after adding a suitable cell lysing agent and scintillation cocktail, such as ScintiVerse BD (Fisher Scientific, Fairlawn, Calif.) which performs both functions.
(§3) Certain cancer cells show a higher metastatic potential and invasive capability than others. For example the BL6 and F10 melanoma cell lines are highly metastatic and invasive. […]

[2] = system: human lung cancer cell line LU-65; assay: tritiated thymidine incorporation, tumor cell growth (LU-65); format: cell-based; settings: LU-65, FIG. 2B
From the text: (§4) FIGS. 2A-2C show the effect of sphingosine derivatives on human tumor cell growth. In FIG. 2A the growth of human colonic cancer cell line COLO-205 was monitored. In FIG. 2B the growth of human lung cancer cell line LU-65 was monitored. In FIG. 2C the growth of human gastric cancer cell line MKN-74 was monitored. In each Figure the ordinate represents the percent inhibition of tritiated thymidine incorporation, the solid circles represent sphingosine, the open circles represent N,N-dimethylsphingosine and the triangles represent N,N,N-trimethylsphingosine.
as §2, with “functions. […]” for “functions.”

[3] = system: human gastric cancer cell line MKN-74; assay: tritiated thymidine incorporation, tumor cell growth (MKN-74); format: cell-based; settings: MKN-74, FIG. 2C
From the text: as §4
as §2, with “functions. […]” for “functions.”

[4] = system: neutrophils; assay: neutrophil O2 consumption (Clark-type electrode); format: cell-based, human
Description: FIG. 14 depicts the effect of various reagents on neutrophil O2 consumption. The Clark-type electrode and oxygen monitor were calibrated using air-saturated water according to the manufacturer's recommendations (Y.S.I. Inc., Yellow Springs, Ohio. A reading of 100% was considered to be equal to the concentration of oxygen in air-saturated water.
O2 consumption was measured using a Clark-type electrode with a Y.S.I. model P300 biological oxygen monitor and a micro oxygen chamber assembly (Y.S.I. Inc., Yellow Springs, Ohio). Assays were performed at 37° C. with ≈6×10^6 neutrophils per ml in a total volume of 600 μl. The cell suspensions, in Eppendorf test tubes, were warmed at 37° C. for several minutes before being applied to the microchamber. Effectors were injected carefully using a Hamilton syringe and stirred well with a microstirrer at a speed of ≈240 rpm. The cell suspensions were pre-incubated with effectors for 5 min prior to addition of PMA to a final concentration of 1.0 μM.

[5] = system: MKN-74 cells; assay: comparative effect of reagents on MKN-74 tumor cell growth/differentiation; format: cell-based, human; settings: MKN-74, FIG. 3, compared with DMS, SPN, cAMP derivatives, HMBA
From the text: FIG. 3 depicts the comparative effect of various reagents on tumor cell differentiation. MKN-74 cells were exposed to N,N,N-trimethylsphingosine (open squares), N,N-dimethylsphingosine (open circles), 8-chloro-cyclic AMP (open triangles), dibutyryl cyclic AMP (solid triangles), sphingosine (solid circles) and hexamethylenebisacetamide (solid squares).
as §2
MKN-74 cells were exposed to cAMP and derivatives thereof and to HMBA, which are known to inhibit tumor cell growth by differentiation induction.

[6] = system: human colonic cancer cell line COLO-205; assay: tritiated thymidine incorporation, tumor cell growth (COLO-205); format: cell-based; settings: COLO-205, FIG. 2A
From the text: as §4
as §2, with “functions. […]” for “functions.”

[7] = system: F1 melanoma cells; assay: melanoma F1 cell proliferation (thymidine incorporation); format: cell-based; settings: F1, FIG. 5B
From the text: as §1, §2, §3

[8] = system: HUVEC's; assay: morphologic damage to endothelial cells (HUVEC's); format: cell-based, human; settings: staurosporine 2 μM, calphostin C 5 μM
Description: A characteristic of neutrophils is the ability to adhere to activiated EC's and to migrate through the EC monolayer into the vascular or extravascular matrix. The effect of TMS on neutrophil interactions with EC's and their subsequent trans-endothelial migration thereof can be monitored in vitro using human umbilical endothelial cells (HUVEC's) (Luscinskas et al., J. Imm., 146, 1617, 1991). Neutrophils are added to a HUVEC monolayer and neutrophil-HUVEC interactions are assessed microscopically following fixation, embedding and staining of monolayer sections.
HUVEC's and culture media were purchased from Cell Systems (Kirkland, Wash.). The cells were maintained and cultured as described in Luscinskas et al., supra, with some modifications. Briefly, HUVEC's were maintained in 10 ml tissue culture flasks on a collagen type I bed obtained from rat tail (Upstate Biotechnology Inc, Lake Placid, N.Y.) with CS-complete medium, CS-growth factor and CS-AF-1 (Cell Systems). Cells became confluent within 2 to 4 days when incubated in 5% CO2 at 37° C.
The HUVEC monolayer in 24-well tissue culture plates were washed with M199 without FCS, then incubated with 1 ml/well of IL-1β (Boehringer Mannheim Biochemical Products, Indianapolis, Ind.) dissolved in M199 with 1% heat-inactivated FCS (HIFCS) at 10 U/ml. The plates were incubated at 37° C., 5% CO2 for 4 hr then washed gently with 1 ml of M199. […]

| Molecule | inhibition of cell growth [1] | inhibition of tumor cell growth [2] | inhibition of tumor cell growth [3] | neutrophil O2 consumption ([4]; Example 6) | inhibition of PMA-dependent enhancement of O2 consumption ([4]; PMA, FIG. 14) | inhibition of tumor cell growth [5] | inhibition of tumor cell growth [6] | inhibition of cell growth [7] | morphologic damage to EC's [8] |
| --- | --- | --- | --- | --- | --- | --- | --- | --- | --- |
| CCCCCCCCCCCCC/C=C/[C@@H](O)[C@H](CO)[N+](C)(C)C [TMS, N,N,N-trimethylsphingosine] | more effective than DMS and sphingosine; also recorded: BL6 cells were more sensitive to TMS treatment | superior to sphingosine; also recorded: showed an advantage over DMS | superior to sphingosine; also recorded: showed an advantage over DMS | noted effect | inhibited strongly | most effective inhibitor of tumor cell growth | superior to sphingosine; also recorded: showed an advantage over DMS | more effective than DMS and sphingosine |  |
| Calphostin C |  |  |  |  |  |  |  |  | striking morphologic damage to EC's |
